According to article PMC8253220, “Molecular design, synthesis and in vitro biological evaluation of thienopyrimidine–hydroxamic acids as chimeric kinase HDAC inhibitors: a challenging approach to combat cancer” (Journal of Enzyme Inhibition and Medicinal Chemistry, 2021):
Several values for one entry are separate records, joined by “and”; a condition that tells them apart may be missing. Identical values can stand only once.

What was measured:
Assay in all cases: NCI one-dose screen
Type in all cases: cell-based, human
786-0 = settings: Renal 786-0, 10 µM single dose
Method in brief: (§1)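 At 10 μM, a single concentration, compounds were evaluated for antiproliferative effect in the NCI 60-line screen, with growth expressed relative to untreated control cells.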

A549/ATCC = settings: NSCLC A549/ATCC, 10 µM single dose
Method in brief: as §1

CAKI-1 = settings: Renal CAKI-1, 10 µM single dose
Method in brief: as §1

CCRF-CEM = settings: Leukemia CCRF-CEM, 10 µM single dose
Method in brief: as §1

COLO 205 = settings: Colon COLO 205, 10 µM single dose
Method in brief: as §1

DU-145 = settings: Prostate DU-145, 10 µM single dose
Method in brief: as §1

EKVX = settings: NSCLC EKVX, 10 µM single dose
Method in brief: (§2)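 One concentration (10 μM) applied to each line of the full NCI-60 panel; percent growth compared against untreated cells.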

HCC-2998 = settings: Colon HCC-2998, 10 µM single dose
Method in brief: as §1

HCT-116 = settings: Colon HCT-116, 10 µM single dose
Method in brief: as §1

HL-60(TB) = settings: Leukemia HL-60(TB), 10 µM single dose
Method in brief: as §1

HOP-62 = settings: NSCLC HOP-62, 10 µM single dose
Method in brief: as §1

HS 578T = settings: Breast HS 578T, 10 µM single dose
Method in brief: as §1

HT29 = settings: Colon HT29, 10 µM single dose
Method in brief: as §1

IGROV1 = settings: Ovarian IGROV1, 10 µM single dose
Method in brief: as §1

LOX IMVI = settings: Melanoma LOX IMVI, 10 µM single dose
Method in brief: as §1

M14 = settings: Melanoma M14, 10 µM single dose
Method in brief: as §1

MALME-3M = settings: Melanoma MALME-3M, 10 µM single dose
Method in brief: as §1

MDA-MB-435 = settings: Melanoma MDA-MB-435, 10 µM single dose
Method in brief: as §1

NCI-H226 = settings: NSCLC NCI-H226, 10 µM single dose
Method in brief: as §2

NCI-H322M = settings: NSCLC NCI-H322M, 10 µM single dose
Method in brief: as §1

NCI-H522 = settings: for Growth Percent: NSCLC NCI-H522, 10 µM single dose
Method in brief: as §2

OVCAR-4 = settings: Ovarian OVCAR-4, 10 µM single dose
Method in brief: as §1

OVCAR-5 = settings: Ovarian OVCAR-5, 10 µM single dose
Method in brief: as §1

RPMI-8226 = settings: Leukemia RPMI-8226, 10 µM single dose
Method in brief: as §1

RXF 393 = settings: Renal RXF 393, 10 µM single dose
Method in brief: as §1

SF-268 = settings: for Growth Percent: CNS SF-268, 10 µM single dose
Method in brief: (§3)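 Following the standard NCI-60 protocol, compounds were applied once at 10 μM to all 60 cancer lines. Read-out is percent growth versus untreated controls, expressed as inhibition %.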

SF-539 = settings: for Growth Percent: CNS SF-539, 10 µM single dose
Method in brief: as §3

SK-MEL-2 = settings: Melanoma SK-MEL-2, 10 µM single dose
Method in brief: as §1

SK-MEL-5 = settings: Melanoma SK-MEL-5, 10 µM single dose
Method in brief: as §1

SK-OV-3 = settings: Ovarian SK-OV-3, 10 µM single dose
Method in brief: as §1

SN12C = settings: Renal SN12C, 10 µM single dose
Method in brief: as §1

SNB-19 = settings: CNS SNB-19, 10 µM single dose
Method in brief: as §1

SNB-75 = settings: for Growth Percent: CNS SNB-75, 10 µM single dose
Method in brief: as §2

SR = settings: Leukemia SR, 10 µM single dose
Method in brief: as §1

SW-620 = settings: Colon SW-620, 10 µM single dose
Method in brief: as §1

TK-10 = settings: Renal TK-10, 10 µM single dose
Method in brief: as §1

UO-31 = settings: for Growth Percent: Renal UO-31, 10 µM single dose
Method in brief: as §2

## Cc1c(C(=O)NO)sc2ncnc(Nc3ccc(NC(=O)Nc4cccc(C(F)(F)F)c4)cc3)c12 [Compound 7c, 1–(4-(6-(hydroxycarbamoyl)-5-methylthieno[2,3-d]pyrimidin-4-ylamino)phenyl)-3–(3-(trifluoromethyl)phenyl)urea]
786-0
  Growth Percent: 108.4% and 108.43%
A549/ATCC
  Growth Percent: 100.4% and 100.47%
CAKI-1
  Growth Percent: 90.57%
CCRF-CEM
  Growth Percent: 101.6%
COLO 205
  Growth Percent: 103.3% and 103.35%
DU-145
  Growth Percent: 104.5% and 104.51%
EKVX
  Growth Percent: 95.7% and 95.77%
HCC-2998
  Growth Percent: 112.6% and 112.66%
HCT-116
  Growth Percent: 97.9% and 97.94%
HL-60(TB)
  Growth Percent: 102.0% and 102.08%
HOP-62
  Growth Percent: 93.7% and 93.71%
HS 578T
  Growth Percent: 90.3% and 90.32%
HT29
  Growth Percent: 97.2% and 97.28%
IGROV1
  Growth Percent: 97.6% and 97.68%
LOX IMVI
  Growth Percent: 90.9% and 90.99%
M14
  Growth Percent: 102.4% and 102.43%
MALME-3M
  Growth Percent: 105.0% and 105.06%
MDA-MB-435
  Growth Percent: 100.6% and 100.67%
NCI-H226
  Growth Percent: 99.2% and 99.29%
NCI-H322M
  Growth Percent: 99.6% and 99.69%
NCI-H522; Homo sapiens, NSCLC NCI-H522, 10 μM
  inhibition at 10 µM: 11.7%
NCI-H522
  Growth Percent: 88.3% and 88.38%
OVCAR-4
  Growth Percent: 103.4% and 103.45%
OVCAR-5
  Growth Percent: 114.3% and 114.33%
RPMI-8226
  Growth Percent: 93.27%
RXF 393
  Growth Percent: 106.61%
SF-268
  Growth Percent: 89.2%
SF-268; Homo sapiens, CNS SF-268, 10 μM
  inhibition at 10 µM: 10.8%
SF-539
  Growth Percent: 61.4% and 61.49%
SF-539; Homo sapiens, CNS SF-539, 10 μM
  inhibition at 10 µM: 38.6%
SK-MEL-2
  Growth Percent: 108.5% and 108.54%
SK-MEL-5
  Growth Percent: 99.6% and 99.67%
SK-OV-3
  Growth Percent: 113.0% and 113.07%
SN12C
  Growth Percent: 97.89%
SNB-19
  Growth Percent: 90.8% and 90.81%
SNB-75
  Growth Percent: 54.0% and 54.04%
SNB-75; Homo sapiens, CNS SNB-75, 10 μM
  inhibition at 10 µM: 46%
SR
  Growth Percent: 94.0% and 94.07%
SW-620
  Growth Percent: 108.7% and 108.79%
TK-10
  Growth Percent: 116.24%
UO-31; Homo sapiens, renal UO-31, 10 μM
  inhibition at 10 µM: 24.7%
UO-31
  Growth Percent: 75.7% and 75.79%

## Cc1c(C(=O)NCCC(=O)NO)sc2ncnc(Nc3ccc(NC(=O)Nc4ccccc4)cc3)c12 [Compound 11a, 1–(4-(6-((3-(hydroxyamino)-3-oxopropyl)carbamoyl)-5-methylthieno[2,3-d]pyrimidin-4-ylamino)phenyl)-3-phenylurea]
786-0
  Growth Percent: 98.2% and 98.21%
A549/ATCC
  Growth Percent: 97.7% and 97.77%
CAKI-1
  Growth Percent: 94.5% and 94.51%
CCRF-CEM
  Growth Percent: 106.8% and 106.84%
COLO 205
  Growth Percent: 113.5% and 113.57%
DU-145
  Growth Percent: 110.81%
EKVX
  Growth Percent: 94.6% and 94.62%
HCC-2998
  Growth Percent: 98.0% and 98.02%
HCT-116
  Growth Percent: 102.9% and 102.94%
HL-60(TB)
  Growth Percent: 103.5% and 103.58%
HOP-62
  Growth Percent: 102.3% and 102.39%
HS 578T
  Growth Percent: 99.6% and 99.62%
HT29
  Growth Percent: 104.0% and 104.03%
IGROV1
  Growth Percent: 103.0% and 103.03%
LOX IMVI
  Growth Percent: 95.3% and 95.38%
M14
  Growth Percent: 99.1% and 99.16%
MALME-3M
  Growth Percent: 103.6% and 103.62%
MDA-MB-435
  Growth Percent: 102.2% and 102.21%
NCI-H226
  Growth Percent: 90.4% and 90.42%
NCI-H322M
  Growth Percent: 101.2% and 101.26%
NCI-H522
  Growth Percent: 92.8%
OVCAR-4
  Growth Percent: 101.4% and 101.41%
OVCAR-5
  Growth Percent: 106.2% and 106.26%
RPMI-8226
  Growth Percent: 109.4%
RXF 393
  Growth Percent: 107.3% and 107.33%
SF-268
  Growth Percent: 96.8% and 96.85%
SF-539
  Growth Percent: 90.3% and 90.31%
SK-MEL-2
  Growth Percent: 107.0% and 107.07%
SK-MEL-5
  Growth Percent: 99.1% and 99.18%
SK-OV-3
  Growth Percent: 123.7% and 123.79%
SN12C
  Growth Percent: 101.4% and 101.42%
SNB-19
  Growth Percent: 97.5% and 97.59%
SNB-75
  Growth Percent: 79.7% and 79.72%
SR
  Growth Percent: 108.7% and 108.77%
SW-620
  Growth Percent: 103.0% and 103.02%
TK-10
  Growth Percent: 97.6% and 97.69%
UO-31
  Growth Percent: 83.7% and 83.77%
